The values that follow come from PubChem BioAssay (NCI).

Among the test systems are SF-295 CNS; IGROV1 ovarian; MDA-MB-435; HCC-2998 colon; NCI-H522 lung; U251 CNS; SK-OV-3 ovarian; COLO 205 colon; TK-10 renal; MDA-MB-231 breast.
What all share (assay): growth of human tumour cells (NCI), 48 h

Where “and” joins values, the source holds several entries; their conditions need not be identical. Equal values may be shown once.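 Interpolation was linear, between the two tested concentrations surrounding the appropriate level; five concentrations were tested over 48 hours in 96-well plates. GI50 marks 50% less growth. TGI denotes the concentration required for complete inhibition of growth.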 Bounds are passed on as bounds.

Turning to `COc1cc(NC(=O)c2ccccc2Nc2ccnc(C(F)(F)F)c2)cc(OC)c1OC`, the GI50 in the assay with SF-295 CNS was 41.9 µM; in the assay with IGROV1 ovarian, 35.1 µM; in the assay with MDA-MB-435 it was 63.3 µM; with HCC-2998 colon, 88.3 µM; in the assay with NCI-H522 lung it was 38.2 µM; in the assay with U251 CNS it was 82.7 µM. Besides, the GI50 in the assay on SK-OV-3 ovarian was > 100 µM; with COLO 205 colon it was 41.9 µM; in the assay with TK-10 renal, 72.3 µM; in the assay with MDA-MB-231 breast, > 100 µM. Also, the TGI in the assay with SF-295 CNS is > 100 µM; in the assay on IGROV1 ovarian, 89.7 µM; in the assay with MDA-MB-435, > 100 µM; with HCC-2998 colon, > 100 µM; in the assay with NCI-H522 lung it was > 100 µM; in the assay with U251 CNS it was > 100 µM. Besides, the TGI in the assay on SK-OV-3 ovarian, in the assay on COLO 205 colon, in the assay with TK-10 renal and with MDA-MB-231 breast was > 100 µM in each case.

Turning to `COc1cc(NC(C)CCCN2C(=O)c3ccccc3C2=O)c2ncccc2c1OC` (centres undefined), the GI50 is 21.1 µM in the assay with SF-295 CNS; 18.6 µM with IGROV1 ovarian; 34.2 µM with MDA-MB-435; 33.1 µM in the assay on HCC-2998 colon; 35.4 µM in the assay with NCI-H522 lung; 46.8 µM in the assay with U251 CNS. Besides, the GI50 in the assay with SK-OV-3 ovarian was > 100 µM; in the assay with COLO 205 colon it was 31.9 µM; with TK-10 renal, 40.5 µM; in the assay with MDA-MB-231 breast, 31.8 µM. Also, the TGI with SF-295 CNS is 86.5 µM; in the assay with IGROV1 ovarian, > 100 µM; in the assay with MDA-MB-435, > 100 µM; with HCC-2998 colon, > 100 µM; with NCI-H522 lung, > 100 µM; in the assay on U251 CNS, > 100 µM. Moreover, the TGI in the assay with SK-OV-3 ovarian, in the assay with COLO 205 colon, with TK-10 renal and in the assay on MDA-MB-231 breast was > 100 µM in each case.

As to `CNc1ncc2cc(-c3cc(NC(=O)NCCC(C)(C)C)c(F)cc3C)c(C)nc2n1`, the GI50 was 1.56 µM and 1.47 µM in the assay on SF-295 CNS; 0.179 µM and 0.151 µM in the assay on IGROV1 ovarian; 0.0299 µM and 0.0389 µM in the assay with MDA-MB-435; 0.283 µM and 0.207 µM with HCC-2998 colon; 0.294 µM and 0.333 µM with NCI-H522 lung; 0.572 µM and 0.474 µM with U251 CNS. For the same compound, the GI50 with SK-OV-3 ovarian is 0.359 µM and 0.431 µM; with COLO 205 colon, < 0.0133 µM and 0.0135 µM; in the assay with TK-10 renal, 0.241 µM and 0.243 µM; with MDA-MB-231 breast, 0.0619 µM and 0.156 µM. Moreover, the TGI in the assay on SF-295 CNS was > 100 µM; with MDA-MB-435, > 39.4 µM; with HCC-2998 colon, > 77.2 µM; in the assay with NCI-H522 lung it was > 20.9 µM; with U251 CNS it was 31.6 µM and > 10 µM; in the assay with SK-OV-3 ovarian, 4.36 µM and 5.87 µM. In addition, the TGI in the assay on COLO 205 colon was 1.38 µM and > 4.3 µM; with TK-10 renal it was 5.07 µM and 6.79 µM; with MDA-MB-231 breast, 1.67 µM and 1.41 µM.

Take `O=C1NC(=N[C@H](CO)c2ccccc2)S/C1=C\c1ccc2ncccc2c1`: the GI50 in the assay on SF-295 CNS is 4.69 µM; in the assay with IGROV1 ovarian it was 4.44 µM; in the assay on MDA-MB-435, 5.37 µM; in the assay with HCC-2998 colon, 7.96 µM; with NCI-H522 lung, 1.54 µM; in the assay with U251 CNS it was 1.96 µM. For the same compound, the GI50 in the assay with SK-OV-3 ovarian is 5.11 µM; in the assay with COLO 205 colon it was 3.54 µM; with TK-10 renal, 1.95 µM; in the assay with MDA-MB-231 breast it was 7.71 µM. The TGI is > 20 µM in the assay on SF-295 CNS; > 17.1 µM in the assay with IGROV1 ovarian; > 25 µM with MDA-MB-435; > 25 µM in the assay on HCC-2998 colon; 6.31 µM in the assay with NCI-H522 lung; > 19.8 µM in the assay with U251 CNS. For the same compound, the TGI in the assay on SK-OV-3 ovarian is 17.6 µM; in the assay with COLO 205 colon, > 25 µM; in the assay with TK-10 renal it was 20 µM; with MDA-MB-231 breast, > 25 µM.

With `O=C1C(Br)=CC2(C=C1Br)CCNc1c(O)c3c4c(c12)=NCCC=4C=N3`, the TGI is 2.56 µM in the assay with SF-295 CNS; 0.42 µM with IGROV1 ovarian; 0.245 µM in the assay with MDA-MB-435; 1.21 µM in the assay with HCC-2998 colon; 0.0542 µM in the assay on NCI-H522 lung; 1.07 µM in the assay with U251 CNS. Also, the TGI in the assay on SK-OV-3 ovarian worked out at 4.26 µM; in the assay with COLO 205 colon, 0.0289 µM; in the assay with TK-10 renal, 0.792 µM; in the assay with MDA-MB-231 breast, 0.409 µM.

In the case of `CS(=O)(=O)N1CCc2c(-c3cnc(N)nc3)nc(N3CCOCC3)nc21`, the GI50 was 0.556 µM and 0.354 µM in the assay with SF-295 CNS; 0.0868 µM and 0.0664 µM in the assay with IGROV1 ovarian; 0.94 µM and 0.78 µM in the assay on MDA-MB-435; 0.923 µM and 0.794 µM in the assay with HCC-2998 colon; 0.642 µM and 2.1 µM in the assay with NCI-H522 lung; 1.7 µM and 1.27 µM with U251 CNS. Further, the GI50 in the assay with SK-OV-3 ovarian was 0.128 µM and 0.166 µM; with COLO 205 colon, 0.444 µM and 0.516 µM; in the assay with TK-10 renal it was 0.197 µM and 0.221 µM; in the assay on MDA-MB-231 breast, 1.29 µM and 1.26 µM. For the same compound, the TGI in the assay with SF-295 CNS is 3.91 µM and 3.29 µM; with IGROV1 ovarian it was 0.443 µM and 0.485 µM; in the assay with MDA-MB-435, > 10 µM and 12.6 µM; in the assay on HCC-2998 colon it was > 73.5 µM; in the assay with NCI-H522 lung it was > 48.7 µM; in the assay on U251 CNS, > 10 µM and 23 µM. Besides, the TGI in the assay on SK-OV-3 ovarian was 0.692 µM and 1.37 µM; with COLO 205 colon, > 10 µM and 13 µM; with TK-10 renal it was 3.25 µM and 4.09 µM; with MDA-MB-231 breast, > 10 µM and 23.4 µM.

Regarding `O=C1NC(=O)C(c2c[nH]c3ccccc23)=C1c1ccccc1`, the GI50 in the assay with SF-295 CNS, in the assay on IGROV1 ovarian, with MDA-MB-435, in the assay on HCC-2998 colon, with NCI-H522 lung and in the assay with U251 CNS was > 25 µM each time. The GI50 with SK-OV-3 ovarian, in the assay with COLO 205 colon, with TK-10 renal and with MDA-MB-231 breast was > 25 µM each time. Moreover, the TGI in the assay on SF-295 CNS, in the assay on IGROV1 ovarian, in the assay on MDA-MB-435, with HCC-2998 colon, with NCI-H522 lung and in the assay on U251 CNS was > 25 µM throughout. Moreover, the TGI in the assay with SK-OV-3 ovarian, in the assay on COLO 205 colon, with TK-10 renal and in the assay on MDA-MB-231 breast was > 25 µM each time.

Take `COC(=O)[C@]12CC[C@@H](C)[C@H](C)[C@@H]1C1=CC[C@@H]3[C@@]4(C)CC(=O)[C@H](O)[C@@](C)(CO)[C@@H]4C(=O)C[C@@]3(C)[C@]1(C)CC2`: the GI50 was 10.6 µM with SF-295 CNS; 12.7 µM with IGROV1 ovarian; 12.6 µM in the assay on MDA-MB-435; 16.9 µM in the assay on HCC-2998 colon; 4.27 µM with NCI-H522 lung; 11.7 µM with U251 CNS. For the same compound, the GI50 is 16.6 µM in the assay with SK-OV-3 ovarian, 14.3 µM with COLO 205 colon, 19.7 µM in the assay with TK-10 renal and 13.6 µM in the assay on MDA-MB-231 breast. For the same compound, the TGI is 23.3 µM with SF-295 CNS; 28.1 µM in the assay with IGROV1 ovarian; 25.1 µM with MDA-MB-435; 33.9 µM in the assay with HCC-2998 colon; 22.1 µM in the assay with NCI-H522 lung; 25.1 µM in the assay on U251 CNS. Besides, the TGI with SK-OV-3 ovarian worked out at 30.5 µM; with COLO 205 colon, 29.5 µM; with TK-10 renal it was 34 µM; with MDA-MB-231 breast, 29.2 µM.
